A value given as a limit tells only on which side of the number the result lay.

Chain of Pim-1 kinase (P11309 whole entry): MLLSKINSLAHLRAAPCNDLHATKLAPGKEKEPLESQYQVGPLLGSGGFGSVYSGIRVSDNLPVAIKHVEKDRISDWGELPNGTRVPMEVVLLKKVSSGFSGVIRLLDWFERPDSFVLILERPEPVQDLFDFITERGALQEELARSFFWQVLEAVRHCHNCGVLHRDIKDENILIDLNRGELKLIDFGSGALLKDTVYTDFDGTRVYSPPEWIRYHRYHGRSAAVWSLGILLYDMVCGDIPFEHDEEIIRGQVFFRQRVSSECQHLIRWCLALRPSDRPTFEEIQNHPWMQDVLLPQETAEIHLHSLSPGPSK

The first assay concerns the target Pim-1 kinase (Homo sapiens, UniProt P11309). Kind of assay: Pim-1 kinase inhibition assay (Promega Kinase-Glo). Type of assay: biochemical. Particulars: Table IV; Kinase-Glo, 10uM ATP; read-out: IC50 on Pim1. The text has this:
One illustrative manner in which Pim-1 kinase activity can be determined is by quantifying the amount of ATP remaining in solution after an in vitro Pim-1 kinase reaction. The Kinase-Glo Assay Kit (Promega, Inc., Madison, WI) allows this. The amount of ATP remaining in the solution after the kinase reaction serves as a substrate for the luciferase to catalyze luciferin to oxyluciferin plus one photon of light. Thus, the luminescent signal read by the Luminoskan Ascent Instrument (Thermo Electron Corp., Milford, MA) correlates with the amount of ATP present after the kinase reaction and inversely correlates with the amount of kinase acitivity. […] These assays are set up in duplicate 50ul volumes in white, flat bottom 96 well plates. […] This solution is incubated at 30 degrees Celsius at 360rpm for two hours. Following the incubation, 50ul of Kinase-Glo reagent is added to each well, including all positive and negative control wells, and incubated at room temperature for 15 minutes. […] The IC50 values can then be calculated for each inhibitor tested.
A general note: Kinase-Glo measures the ATP left after a reaction by luminescence.
As usually defined, the IC50 is the point on the concentration scale where inhibition reaches its midpoint. As to `O=C(CN1CCOCC1)N1CCC(CNc2ccc3ncc(-c4cccc(OC(F)(F)F)c4)n3n2)CC1` [8-21, 2-Morpholino-1-(4-(((3-(3-(trifluoromethoxy)phenyl)imidazo[1,2-b]pyridazin-6-yl)amino)methyl)piperidin-1-yl)ethanone], the IC50 came out at 0.046 µM.

For `CO[C@H]1CC[C@H](Nc2ccn3ncc(-c4cccc(C(F)(F)F)c4)c3n2)CC1` [8-57, 4-(trans-Methoxycyclohexyl)-3-(3-(trifluoromethyl)phenyl)pyrazolo[1,5-a]pyrimidin-5-amine], the IC50 was determined as 0.066 µM.

Regarding `O=S1(=O)CCC(CNc2ccn3ncc(-c4cccc(Cl)c4)c3n2)CC1` [8-66, 4-(((3-(3-Chlorophenyl)pyrazolo[1,5-a]pyrimidin-5-yl)amino)methyl)tetrahydro-2H-thiopyran 1.1-dioxide], the IC50 amounted to 0.164 µM.

As to `CO[C@H]1CC[C@H](Nc2ccn3ncc(-c4cccc(OC(F)(F)F)c4)c3n2)CC1` [8-49, 4-(trans-Methoxycyclohexyl)-3-(3-(trifluoromethoxy)phenyl)pyazolo[1,5-a]pyrimidin-5-amine], the IC50 is 0.378 µM.

Take `O=C1CC(CNc2ccc3ncc(-c4cccc(OC(F)(F)F)c4)n3n2)CCN1` (stereo not shown) [8-23, 4-(((3-(3-(Trifluoromethoxy)phenyl)imidazo[1,2-b]pyridazin-6-yl)amino)methyl)piperidin-2-one]: the IC50 amounted to 1.63 µM.

Turning to `CC(C)(O)CCOc1ccc2ncc(-c3cccc(OC(F)(F)F)c3)n2n1` [8-41, 2-Methyl-4-((3-(3-(Trifluoromethoxy)phenyl)imidazo[1,2-b]pyridazin-6-yl)oxy)butan-2-ol], the IC50 stood at 0.226 µM.

Take `N[C@H]1CC[C@H](Nc2ccn3ncc(-c4cccc(OC(F)(F)F)c4)c3n2)CC1` [8-52, N-(3-(3-(Trifluoromethoxy)phenyl)pyrazolo[1,5-a]pyrimidin-5-yl)cyclohexane-1,4-trans-diamine]: the IC50 was 0.005 µM.

Turning to `N[C@H]1CCCN(c2ccn3ncc(-c4cccc(Cl)c4)c3n2)C1` [8-96, (S)-1-(3-(3-chlorophenyl)pyrazolo[1,5-a]pyrimidin-5-yl)piperidin-3-amine], the IC50 came out at 0.094 µM.

For the compound `CC(C)O[C@H]1CC[C@H](Nc2ccc3ncc(-c4cccc(OC(F)(F)F)c4)n3n2)CC1` [8-16, 4-(trans-Isopropoxycyclohexyl)-3-(3-(trifluoromethoxy)phenyl)imidazo[1,2-b]pyridazin-6-amine], the IC50 turned out to be 0.503 µM.

Regarding `N[C@H]1CCCN(c2ccc3ncc(-c4cccc(Cl)c4)n3n2)C1` [8-71, (S)-1-(3-(3-chlorophenyl)imidazo[1,2-b]pyridazin-6-yl)piperidin-3-amine], the IC50 turned out to be 0.012 µM.

As to `O=S1(=O)CCC(Nc2ccc3ncc(-c4cccc(OC(F)(F)F)c4)n3n2)CC1` [8-14, 4-((3-(3-(Trifluoromethoxy)pheny/)imidazo[1,2-]pyridazin-6-yl)amino)tetrahydro-2H-thiopyran 1,1-dioxide], the IC50 is 1.19 µM.

As to `CC1(O)CCC(Nc2ccn3ncc(-c4cccc(C(F)(F)F)c4)c3n2)CC1` (single isomer, unassigned) [8-55, 1-Methyl-4-((3-(3-(trifluoromethyl)phenyl)pyrazolo[1,5-a]pyrimidin-5-yl)amino)-trans-cyclohexanol], the IC50 turned out to be 0.054 µM.

Regarding `CC(C)(O)CNc1ccc2ncc(-c3cccc(OC(F)(F)F)c3)n2n1` [8-6, 2-Methyl-1-((3-(3-(trifluoromethoxy)phenyl)imidazo[1.2-b]pyridazin-6-yl)amino)propan-2-ol], the IC50 was determined as 0.03 µM.

Regarding `COCCOc1ccc2ncc(-c3cccc(OC(F)(F)F)c3)n2n1` [8-42, 6-(2-Methoxyethoxy)-3-(3-(trifluoromethoxy)phenyl)imidazo[1,2-b]pyridazine], the IC50 is 1.97 µM.

Turning to `N[C@H]1CC[C@H](Nc2ccc3ncc(-c4cccc(Cl)c4)n3n2)CC1` [8-68, N1-(3-(3-Chlorophenyl)imidazo[1,2-b]pyridazin-6-yl)cyclohexane-1,4-trans-diamine], the IC50 is 0.004 µM.

Consider `N[C@H]1CCCN(c2ccn3ncc(-c4cccc(OC(F)(F)F)c4)c3n2)C1` [8-53, (S)-1-(3-(3-(Trifluoromethoxy)phenyl)pyrazolo[1,5-a]pyrimidin-5-yl)piperidin-3-amine], for which the IC50 came to 0.132 µM.

For `Clc1cccc(-c2cnn3ccc(NC4CCOCC4)nc23)c1` [8-65, 3-(3-Chlorophenyl)-N-(tetrahydro-2H-pyran-4-yl)pyrazolo[1,5-a]pyrimidin-5-amine], the 50% inhibitory concentration (IC50) came to 0.186 µM.

For `FC(F)(F)Oc1cccc(-c2cnc3ccc(NCC4CCSCC4)nn23)c1` [8-18, N-((tetrahydro-2H-thiopyran-4-yl)methyl)-3-(3-(trifluoromethoxy)phenyl)imidazo[1,2-b]pyridazin-6-amine], the IC50 came to 0.053 µM.

As for `FC(F)(F)c1cccc(-c2cnc3ccc(NC4CCOCC4)nn23)c1` [8-33, N-(Tetrahydro-2H-pyran-4-yl)-3-(3-(trifluoromethyl)phenyl)imidazo[1,2-b]pyridazin-6-amine], the IC50 is 0.033 µM.

As to `Clc1cccc(-c2cnc3ccc(NC4CCOCC4)nn23)c1` [8-39, 3-(3-Chlorophenyl)-N-(tetrahydro-2H-pyran-4-yl)imidazo[1,2-b]pyridazin-6-amine], the IC50 turned out to be 0.048 µM.

Turning to `O=S1(=O)CCC(CNc2ccc3ncc(-c4cccc(Cl)c4)n3n2)CC1` [8-40], the IC50 came out at 0.2 µM.

Regarding `CO[C@H]1CC[C@H](Nc2ccc3ncc(-c4cccc(Cl)c4)n3n2)CC1` [8-38, 3-(3-Chlorophenyl)-N-(4-trans-methoxycyclohexyl)imidazo[1,2-b]pyridazin-6-amine], the IC50 was 0.018 µM.

Consider `FC(F)(F)c1cccc(-c2cnn3ccc(NC4CCOCC4)nc23)c1` [8-58, N-(Tetrahydro-2H-pyran-4-yl)-3-(3-(trifluoromethyl)phenyl)pyrazolo[1,5-a]pyrimidin-5-amine], for which the IC50 came out at 0.149 µM.

On to `N[C@H]1CCCN(c2ccc3ncc(-c4cccc(OC(F)(F)F)c4)n3n2)C1` [8-25, (S)-1-(3-(3-(Trifluoromethoxy)phenyl)imidazo[1,2-b]pyridazin-6-yl)piperidin-3-amine], for which the IC50 came to 0.03 µM.

With `FC(F)(F)Oc1cccc(-c2cnn3ccc(NC4CCOCC4)nc23)c1` [8-50, N-(Tetrahydro-2H-pyran-4-yl)-3-(3-(trifluoromethoxy)phenyl)pyrazolo[1,5-a]pyrimidin-5-amine], the IC50 was found to be 0.633 µM.

Consider `CC(C)(O)C(=O)N1CCC(CNc2ccc3ncc(-c4cccc(OC(F)(F)F)c4)n3n2)CC1` [8-20, 2-Hydroxy-2-methyl-1-(4-(((3-(3-(trifluoromethoxy)phenyl)imidazo[1,2-b]pyridazin-6-yl)amino)methyl)piperidin-1-yl)propan-1-one], for which the IC50 worked out at 0.016 µM.

Regarding `CN(C)CC(=O)N1CCC(CNc2ccc3ncc(-c4cccc(OC(F)(F)F)c4)n3n2)CC1` [8-45, 2-(dimethylamino)-1-(4-(((3-(3-(trifluoromethoxy)phenyl)imidazo[1,2-b]pyridazin-6-yl)amino)methyl)piperidin-1-yl)ethanone], the IC50 is 0.016 µM.

As to `CC(C)(O)[C@H]1CC[C@H](Nc2ccn3ncc(-c4cccc(OC(F)(F)F)c4)c3n2)CC1` [8-47], the IC50 worked out at 0.204 µM.

Take `CC(C)(O)[C@H]1CC[C@H](Nc2ccc3ncc(-c4cccc(F)c4)n3n2)CC1` [8-75, 2-(trans-4-((3-(3-fluorophenyl)imidazo[1,2-b]pyridazin-6-yl)amino)cyclohexyl)propan-2-ol]: the IC50 is 0.056 µM.

Turning to `O[C@H]1CC[C@H](Oc2ccc3ncc(-c4cccc(OC(F)(F)F)c4)n3n2)CC1` [8-4, 4-((3-(3-(Trifluoromethoxy)phenyl)imidazo[1,2-b]pyridazin-6-yl)oxy)-trans-cyclohexanol], the IC50 was 0.007 µM.

In the case of `O[C@H]1C[C@H](CNc2ccc3ncc(-c4cccc(OC(F)(F)F)c4)n3n2)C1` [8-7, 3-(((3-(3-(Trifluoromethoxy)phenyl)imidazo[1,2-b]pyridazin-6-yl)amino)methyl)-trans-cyclobutanol], the IC50 turned out to be 0.01 µM.

Still in this assay, the particulars now being: Table V; Kinase-Glo, 10uM ATP; read-out: IC50 on Pim1.
On to `O=S1(=O)CCC(CNc2ccc3nnc(-c4cccc(OC(F)(F)F)c4)n3c2)CC1` [8-103, 4-(((3-(3-(Trifluoromethoxy)phenyl)-[1,2,4]triazolo[4,3-a]pyridin-6-y/)amino)methyl)tetrahydro-2H-thiopyran 1,1-dioxide], for which the 50% inhibitory concentration (IC50) worked out at 3.8 µM.

In the case of `O[C@H]1CC[C@H](Nc2ccc3nnc(-c4cccc(C(F)(F)F)c4)n3c2)CC1` [8-107, 4-((3-(3-(Trifluoromethyl)phenyl)-[1,2,4]triazolo[4,3-a]pyridin-6-yl)amino)-trans-cyclohexanol], the IC50 is 3.95 µM.

On to `FC(F)(F)Oc1cccc(-c2nnc3ccc(NC4CCOCC4)cn23)c1` [8-102, N-(Tetrahydro-2H-pyran-4-yl)-3-(3-(trifluoromethoxy)phenyl)-[1,2,4]triazolo[4,3-a]pyridin-6-amine], for which the 50% inhibitory concentration (IC50) is 3.25 µM.

Take `CC(C)(O)[C@H]1CC[C@H](Nc2ccc3nnc(-c4cccc(C(F)(F)F)c4)n3c2)CC1` [8-109]: the IC50 stood at 3.87 µM.

Turning to `FC(F)(F)c1cccc(-c2nnc3ccc(NC4CCOCC4)cn23)c1` [8-110, N-(Tetrahydro-2H-pyran-4-y/)-3-(3-(trifluoromethy/)pheny/)-[1,2,4]triazolo[4,3-a]pyridin-6-amine], the IC50 is 3.17 µM.

Staying with this assay, now noted: Table V; cells that print µM; read-out: IC50 on Pim1.
With `OCCOc1ccc2nnc(-c3cccc(C(F)(F)F)c3)n2c1` [8-112, 2-((3-(3-(trifluoromethyl)phenyl)-[1,2,4]triazolo[4,3-a]pyridin-6-yl)oxy)ethanol], the IC50 is > 30 µM.
